Some results are limits rather than exact numbers.

For this experiment, the target named is T1, human TRPV4 (hTRPV4/CHO cells) (Homo sapiens, UniProt Q9HBA0).
T1 construct: expressed in transfected cells; host or cells: CHO-K1
T1 sequence (Q9HBA0 whole entry): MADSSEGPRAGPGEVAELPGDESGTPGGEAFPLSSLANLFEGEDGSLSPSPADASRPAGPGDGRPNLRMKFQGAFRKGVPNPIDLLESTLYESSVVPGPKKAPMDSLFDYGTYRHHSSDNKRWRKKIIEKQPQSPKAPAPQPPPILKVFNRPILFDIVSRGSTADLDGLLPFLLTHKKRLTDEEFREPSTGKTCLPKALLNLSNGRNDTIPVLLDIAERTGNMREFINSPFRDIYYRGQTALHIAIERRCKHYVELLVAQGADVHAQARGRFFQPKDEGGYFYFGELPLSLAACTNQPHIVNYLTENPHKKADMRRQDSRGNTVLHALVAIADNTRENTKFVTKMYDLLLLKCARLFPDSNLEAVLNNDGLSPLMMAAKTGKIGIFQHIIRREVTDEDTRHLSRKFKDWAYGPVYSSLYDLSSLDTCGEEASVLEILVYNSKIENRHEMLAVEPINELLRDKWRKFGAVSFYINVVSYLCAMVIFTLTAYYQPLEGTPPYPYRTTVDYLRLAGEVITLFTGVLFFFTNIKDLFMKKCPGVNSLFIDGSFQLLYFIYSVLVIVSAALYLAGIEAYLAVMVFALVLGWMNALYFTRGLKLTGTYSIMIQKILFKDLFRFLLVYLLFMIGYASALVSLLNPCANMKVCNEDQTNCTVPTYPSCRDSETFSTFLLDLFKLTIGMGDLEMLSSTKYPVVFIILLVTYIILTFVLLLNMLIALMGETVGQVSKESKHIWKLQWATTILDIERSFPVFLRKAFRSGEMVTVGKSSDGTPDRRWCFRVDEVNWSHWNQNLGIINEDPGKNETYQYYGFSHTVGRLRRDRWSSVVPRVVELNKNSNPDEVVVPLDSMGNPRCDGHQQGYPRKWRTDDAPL
The experiment can be described thus: Test Example 1: TRPV4 inhibitory activity (IC50 value), 4α-PDD stimulation, Fluo4 calcium fluorescence (FLIPR TETRA). In kind it is cell-based. To be noted: Test Example 1, 4α-PDD stimulation, read-out: Test 1 IC50.
A word on the IC50: it is the concentration that inhibits the measured activity by half. Consider `Cc1nc(CS(C)(=O)=O)c(-c2csc(NC(=O)Cc3ccc(S(=O)(=O)C(F)(F)F)cc3)n2)s1` [Compound I-485], for which the IC50 is 0.1 to 1 µM. `Cc1nc(CO)sc1-c1csc(NC(=O)/C=C/c2ccc(Cl)cc2)n1` [Compound I-466]: the IC50 lay within 0.1 to 1 µM. Turning to `Cc1nc(C)c(-c2csc(NC(=O)C3CN(Cc4ccccc4C(F)(F)F)C3)n2)s1` [Compound I-260], the IC50 is less than 0.1 µM. Under `Cc1nc(C)c(-c2csc(NC(=O)Cn3cc(-c4cccnc4)cn3)n2)s1` [Compound I-148] stands 0.1 to 1 µM. For the molecule `Cc1nc(C(C)O)sc1-c1csc(NC(=O)C2CN(c3ccc(C(F)(F)F)cc3)C2)n1` (racemic) [Compound I-467], the IC50 was less than 0.1 µM. Under `Cc1nc(C)c(-c2csc(NC(=O)Cn3cc(CNC(=O)OC(C)(C)C)nn3)n2)s1` [Compound I-421] stands 1 to 8 µM. For the molecule `COc1ccc(N2CC(C(=O)Nc3nc(-c4sc(CO)nc4C)cs3)CC2=O)cc1` (stereo not drawn) [Compound I-200], the IC50 lay within 1 to 8 µM. Under `COCC1(C(=O)Nc2nc(-c3sc(C)nc3C)cs2)CN(c2ccc(C(F)(F)F)cc2)C1` (racemic) [Compound I-531] stands less than 0.1 µM; under `Cc1nc(C)c(-c2csc(NC(=O)C3(COCc4ccccc4)CN(c4ccc(C(F)(F)F)cc4)C3)n2)s1` (racemic) [Compound I-530], less than 0.1 µM; under `Cc1nc(C)c(-c2csc(NC(=O)Cc3cccc(NC(=O)C4CCCCC4)c3)n2)s1` [Compound I-416], less than 0.1 µM.

`Cc1nc(C)c(-c2csc(NC(=O)N3CCC(C(F)(F)F)CC3)n2)s1` [Compound I-89]: the IC50 was in the range of 1 to 8 µM. For `Cc1nc(C)c(-c2csc(NC(=O)[C@@H]3C[C@@H](c4ccccc4)CN3)n2)s1` [Compound I-178], the IC50 fell in the range of 0.1 to 1 µM. In the case of `Cc1nc(CO)sc1-c1csc(NC(=O)C2CCN(Cc3ccccc3)C2)n1` (stereo not drawn) [Compound I-209], the IC50 fell in the range of 1 to 8 µM. `Cc1nc(CC(N)=O)sc1-c1csc(NC(=O)Cc2ccc(S(=O)(=O)C(F)(F)F)cc2)n1` [Compound I-411]: the IC50 is 0.1 to 1 µM. Under `CN(Cc1nc(CO)sc1-c1csc(NC(=O)Cc2ccc(S(=O)(=O)C(F)(F)F)cc2)n1)C(N)=O` [Compound I-391] stands 0.1 to 1 µM. In the case of `Cc1nc(C)c(-c2csc(NC(=O)Cn3cc(-c4cncnc4)cn3)n2)s1` [Compound I-167], the IC50 was in the range of 1 to 8 µM. Consider `Cc1nc(CO)c(-c2csc(NCCc3c(F)cccc3F)n2)s1` [II-3], for which the IC50 lay within 0.1 to 1 µM.

Consider `Cc1nc(C)c(-c2csc(NC(=O)Cc3cccc(CN(C)C)c3)n2)s1` [Compound I-101], for which the IC50 lay within 1 to 8 µM.

`Cc1nc(C)c(-c2nc(NC(=O)Cc3c(F)cccc3F)sc2-c2ccccc2Cl)s1` [Compound I-66]: the IC50 lay in the range of 1 to 8 µM. As to `Cc1nc(CO)sc1-c1csc(NC(=O)[C@H]2C[C@H](F)C2)n1` [Compound I-202], the IC50 was less than 0.1 µM. Then `NC(=O)NCc1nc(CO)sc1-c1csc(NC(=O)Cc2ccc(S(=O)(=O)C(F)(F)F)cc2)n1` [Compound I-381], with 0.1 to 1 µM; and `Cc1nc(CO)sc1-c1csc(NC(=O)CC2Cc3ccccc3C2)n1` (racemic) [Compound I-239], with 0.1 to 1 µM. For the molecule `CNC(=O)NCc1nc(CO)sc1-c1csc(NC(=O)Cc2ccc(S(=O)(=O)C(F)(F)F)cc2)n1` [Compound I-389], the IC50 is less than 0.1 µM.

Turning to `CCOCC(=O)NCc1nc(CO)sc1-c1csc(NC(=O)Cc2ccc(S(=O)(=O)C(F)(F)F)cc2)n1` [Compound I-438], the IC50 is less than 0.1 µM. In the case of `CNC(=N)c1nc(C)c(-c2csc(NC(=O)Cc3ccc(S(=O)(=O)C(F)(F)F)cc3)n2)s1` [Compound I-441], the IC50 is 0.1 to 1 µM.

For `Cc1nc(C)c(-c2csc(NC(=O)C3Cc4ccccc4O3)n2)s1` (stereo not drawn) [Compound I-180], the IC50 is less than 0.1 µM. As for `Cc1nc(C(=O)NCCN(C)C)c(-c2csc(NC(=O)Cc3c(F)cccc3F)n2)s1` [Compound I-188], the IC50 was 1 to 8 µM. Under `COC(=O)c1cccc(CC(=O)Nc2nc(-c3sc(C)nc3C)cs2)c1` [Compound I-488] stands less than 0.1 µM. On to `CC(=O)c1nc(C)c(-c2csc(NC(=O)Cc3c(F)cccc3F)n2)s1` [Compound I-98], for which the IC50 was in the range of 0.1 to 1 µM. Under `Cc1nc(C(C)(C)O)sc1-c1csc(NC(=O)Cc2c(F)cccc2F)n1` [Compound I-97] stands 0.1 to 1 µM; under `Cc1nc(CO)sc1-c1csc(NC(=O)C2CC3(CCC3)C2)n1` [Compound I-450], less than 0.1 µM; under `CCS(=O)(=O)c1ccc(CC(=O)Nc2nc(-c3sc(C)nc3C)cs2)cc1` [Compound I-80], 0.1 to 1 µM. Consider `O=C(O)CCc1nc(CO)sc1-c1csc(NC(=O)C2CN(c3ccc(C(F)(F)F)cc3)C2)n1` [Compound I-351], for which the IC50 is 1 to 8 µM. As to `Cc1nc(C)c(-c2csc(NCCc3ccccc3)n2)s1` [II-35], the IC50 is less than 0.1 µM. Regarding `Cc1nc(C)c(-c2csc(NC(=O)C3(F)CN(c4ccc(C(F)(F)F)cc4)C3)n2)s1` (racemic) [Compound I-533], the IC50 was less than 0.1 µM. Under `Cc1ccc(-c2csc(NC(=O)Cc3ccc(S(=O)(=O)CC(F)(F)F)cc3)n2)s1` [II-8] stands 0.1 to 1 µM.

With `Cc1nc(C)c(-c2csc(NC(=O)[C@H]3C[C@@H](c4ccccc4)CN3)n2)s1` [Compound I-193], the IC50 lay within 1 to 8 µM. Then `O=C(Cc1ccc(S(=O)(=O)C(F)(F)F)cc1)Nc1nc(-c2sc(CO)nc2CCN2CCOCC2)cs1` [Compound I-375], with less than 0.1 µM.

On to `Cc1nc(C)c(-c2csc(NC(=O)Cc3cccc(C(=O)NC(c4ccccc4)C(F)(F)F)n3)n2)s1` (stereo not drawn) [Compound I-506], for which the IC50 was less than 0.1 µM. With `Cc1nc(C)c(-c2nc(NC(=O)Cc3c(F)cccc3F)sc2-c2ccncc2)s1` [Compound I-60], the IC50 was in the range of 1 to 8 µM. In the case of `O=C(Nc1nc(-c2sc(CO)nc2CO)cs1)C1CC(Oc2ccc(C(F)(F)F)cc2)C1` (stereo not drawn) [Compound I-330], the IC50 was less than 0.1 µM. As for `Cc1nc(C)c(-c2csc(NC(=O)Cc3ccc(S(=O)(=O)N(C)c4cccc(Cl)c4)cc3)n2)s1` [Compound I-161], the IC50 was less than 0.1 µM.

Consider `O=C(Nc1nc(-c2sc(CO)nc2CO)cs1)[C@H]1C[C@H](OCc2ccccc2)C1` [Compound I-548], for which the IC50 fell in the range of 0.1 to 1 µM. Under `Cc1nc(C)c(-c2csc(NC(=O)C3CC3(F)F)n2)s1` (stereo not drawn) [Compound I-120] stands 1 to 8 µM. Then `Cc1nc(CO)sc1-c1csc(NC(=O)[C@H]2C[C@@H](OCc3ccccc3C(F)(F)F)C2)n1` [Compound I-346], with less than 0.1 µM; and `Cc1nc(C)c(-c2csc(NC(=O)Cn3cc(CCCC#N)nn3)n2)s1` [Compound I-429], with 1 to 8 µM; and `CC(C)(F)C(=O)N1C[C@H](c2ccccc2)C[C@H]1C(=O)Nc1nc(-c2sc(CO)nc2CO)cs1` [Compound I-349], with 0.1 to 1 µM. Then `Cc1nc(C(O)CO)sc1-c1csc(NC(=O)Cc2c(F)cccc2F)n1` (stereo not drawn) [Compound I-133], with 1 to 8 µM; and `CC(=O)NCc1nc(CO)sc1-c1csc(NC(=O)C2CN(c3ccc(C(F)(F)F)cc3)C2)n1` [Compound I-353], with less than 0.1 µM. Regarding `Cc1nc(CO)sc1-c1csc(NC(=O)[C@@H]2C[C@@H](c3ccccc3)CN2S(=O)(=O)C(C)C)n1` [Compound I-316], the IC50 is less than 0.1 µM.

For the molecule `Cc1nc(C)c(-c2csc(NC(=O)Cc3cccc(NS(=O)(=O)c4ccccc4)c3)n2)s1` [Compound I-418], the IC50 is less than 0.1 µM.

As to `Cc1nc(C)c(-c2csc(NC(=O)[C@@H]3C[C@@H](c4ccccc4)CN3C=[N+](C)C)n2)s1` [Compound I-294], the IC50 lay in the range of 1 to 8 µM. On to `O=C(Nc1nc(-c2sc(CO)nc2CO)cs1)[C@H]1C[C@@H](OCc2ccc(Cl)cc2)C1` [Compound I-332], for which the IC50 was in the range of 0.1 to 1 µM. As for `Cc1nc(CO)sc1-c1csc(NC(=O)C2CN(S(=O)(=O)C(F)(F)F)C2)n1` [Compound I-403], the IC50 lay in the range of 0.1 to 1 µM. As for `CC(=O)NCc1nc(C)c(-c2csc(NC(=O)Cc3ccc(S(=O)(=O)C(F)(F)F)cc3)n2)s1` [Compound I-397], the IC50 was in the range of 0.1 to 1 µM. `Cc1nc(C)c(-c2csc(NC(=O)[C@@H]3C[C@@H](c4ccccc4)CN3C(=O)OC(C)(C)C)n2)s1` [Compound I-210]: the IC50 was less than 0.1 µM. Take `Cc1nc([C@@H](C)O)sc1-c1csc(NC(=O)Cc2ccc(S(=O)(=O)C(F)(F)F)cc2)n1` [Compound I-455]: the IC50 was less than 0.1 µM. Regarding `Cc1nc(C)c(-c2csc(NC(=O)[C@H]3C[C@H](N(C)Cc4ccc(C(F)(F)F)cc4)C3)n2)s1` [Compound I-368], the IC50 was less than 0.1 µM. On to `Cc1nc(CO)sc1-c1csc(NC(=O)[C@H]2C[C@@H](OCC(F)(F)F)C2)n1` [Compound I-356], for which the IC50 lay within 0.1 to 1 µM. Take `Cc1nc(C)c(-c2csc(NC(=O)Cc3cccc(S(C)(=O)=O)c3)n2)s1` [Compound I-79]: the IC50 fell in the range of 0.1 to 1 µM. Then `CC(C)c1ccc(N2CC(C(=O)Nc3nc(-c4sc(CO)nc4CO)cs3)C2)cc1` [Compound I-341], with less than 0.1 µM; and `Cc1nc(C)c(-c2csc(NC(=O)Cc3cccc(NC(=O)C(F)(F)F)c3)n2)s1` [Compound I-417], with less than 0.1 µM. Regarding `O=C(Nc1nc(-c2sc(CO)nc2CO)cs1)[C@H]1C[C@@H](OCc2ccc(C(F)(F)F)cc2)C1` [Compound I-550], the IC50 was 0.1 to 1 µM. Then `Cc1nc(CO)sc1-c1csc(NC(=O)CN2CCC(c3ccccc3)CC2)n1` [Compound I-171], with 0.1 to 1 µM.

With `CN(C)C(=O)NCc1nc(CO)sc1-c1csc(NC(=O)Cc2ccc(S(=O)(=O)C(F)(F)F)cc2)n1` [Compound I-390], the IC50 is less than 0.1 µM.

With `Cc1nc(C)c(-c2csc(NC(=O)[C@H]3C[C@H](Cl)C3)n2)s1` [Compound I-326], the half-maximal inhibitory concentration (IC50) is less than 0.1 µM. Regarding `Cc1nc(C)c(-c2csc(NC(=O)Cc3cccc(C(=O)N[C@H](c4ccccc4)C(F)(F)F)c3)n2)s1` [Compound I-489], the IC50 is less than 0.1 µM. Take `Cc1nc(C)c(-c2csc(NC(=O)Cc3cccc(C#N)c3)n2)o1` [Compound I-138]: the IC50 is 1 to 8 µM. Regarding `Cc1nc(C)c(-c2csc(NC(=O)Cn3cc(-c4ccccc4Cl)cn3)n2)s1` [Compound I-145], the IC50 is less than 0.1 µM.

The record behind these values is patent US20170066759A1, “AROMATIC 5-MEMBERED HETEROCYCLIC DERIVATIVE HAVING TRPV4-INHIBITING ACTIVITY” (Shionogi & Co., Ltd., priority 2012, published 2017).
